Data on 24 compounds can be found in patent US20250288571A1 (Nested Therapeutics, Inc., priority 2024, published 2025).

Data set [1] relates to pMEK. Put plainly: pMEK AlphaLISA (MEK1 pS218/222), A549 cells, EGF stimulated. Conditions: Homo sapiens, 2 h compound, EGF 30 ng/ml 15 min. Format: cell-based. How it is done: (§1) Determination of pMEK IC50s
(§2) A549 cells were cultured in F12K/10% FBS media (ATCC CAT #21127022) and were seeded at 10000 cells/well and HCT116 cells were cultured in McCoy's 5A/10% FBS media (Gibco Cat #30-2007) were seeded at 15000 cells/well in 384 microplates (Corning CAT #3765). Cells were incubated overnight in a TC incubator. Compounds were serially diluted and added to cells for 2 h in a TC incubator. At the end of the 2 h EGF (R&D Systems 236-EG-200) was added at a final EGF concentration of 30 ng/ml and incubated for 15 minutes at 37° C. in a TC incubator. AlphaLisa (Perkin Elmer) was performed according to manufacturer's instructions (Perkin Elmer CAT #ALPHA.SF ULTRA MEK1 PS218/222). The percent (%) inhibition at each concentration of compound is calculated based on and relative to the AlphaLISA signal in the HPE and ZPE control wells contained within each assay plate. The ZPE control wells contain cells and DMSO as 0% inhibition, and the HPE control wells only contain cells and control compound (Sellekchem Staurosporin CAT #S1421) as 100% inhibition.
On the technique in general: Bead proximity is the source of the signal in Alpha formats.

For data set [2], the system named is pMEK. Put plainly: pMEK AlphaLISA (MEK1 pS218/222), HCT116 cells, EGF stimulated. Format: cell-based. Conditions: Homo sapiens, HCT-116, 2 h compound, EGF 30 ng/ml 15 min. How it is done: as §1, §2
The next data set concerns HCT116 cells. Put plainly: HCT116 Cell Titer Glow assay (CTG). Conditions: for IC50 / viability at 1000 µM: Homo sapiens, HCT-116, 72 h; for IC50: read-out: CTG IC50 (nM) Cell Line: HCT116.20; for viability at 1000 µM: read-out: CTG % cell viability 1000 uM HCT116.20, HCT116 cells, 72 hours, 1000 uM. For orientation: Cellular ATP, detected with luciferase, serves as a proxy for viable cell number.

Another data set deals with IPC298 cells. Kind of data set: IPC298 Cell Titer Glow assay (CTG). Conditions: for IC50: Homo sapiens, IPC-298, 72 h, read-out: CTG IC50 (nM) Cell Line: IPC298.2.
Where [3] appears, read: percent cells remaining after treatment.

Each structure is given as a SMILES string. Values joined by “and” are separate entries in the source; they are usually repeats but may differ in a detail not shown here. Equal values may be shown once.

Protocol for IPC298 cells: HCT116 and IPC298 Cell Titer Glow Assay (CTG)
HCT116 cells and IPC298 cells were diluted with culture medium to the desired density 500 cells/well and 40 μL of cell suspension were added into each well of 384-well cell culture plate. […] The plates were covered and stored at room temperature for 30 minutes without shaking and then the plates were transferred into a 37° C. 5% CO2 incubator overnight.
A 10 mM solution in dimethyl sulfoxide (DMSO) was prepared for each test compound. A 3 fold, 10-point dilution was prepared from the stock solution. 40 nl of each solution in 100% DMSO was added to the 384-well plate and diluted to a final 0.1% DMSO final concentration. The plates were then incubated for 72 hours (for both cell lines) at 37° C.
CellTiter-Glo® 2.0 Reagent (Promega, G9242) was removed from the refrigerator and equilibrated at room temperature (23° C.) for 60 minutes. The plates were then removed from the incubator and allowed to equilibrate to room temperature. 30 μL CellTiter-Glo® 2.0 Reagent were added to the assay plates, and spun 1 min/1000 rpm. The plates were allowed to stand for about 20 minutes before being read on Envision using a standard luminescence readout. DMSO was employed as negative control (High control, HC) and 1 uM Staurosporine was employed as positive control (Low control, LC).
The percent (%) inhibition at each concentration of compound was calculated based on the signal in the negative and positive control wells contained within each assay plate.

What is called IC50 is the midpoint of a concentration-inhibition curve. Turning to `CNS(=O)(=O)Nc1nccc(Cc2cncc(Nc3ccc(F)cc3F)c2C)c1F` [Example 7, N-(2,4-difluorophenyl)-5-({3-fluoro-2-[(methylsulfamoyl)amino]pyridin-4-yl}methyl)-4-methylpyridin-3-amine], the IC50 in the data set with pMEK [1] and in the data set with pMEK [2] was under 10 nM in each case.

`CNS(=O)(=O)Nc1nccc(Cc2cncc(Nc3ccc(C(F)(F)F)cc3F)c2C)c1F` [Example 8, 5-({3-fluoro-2-[(methylsulfamoyl)amino]pyridin-4-yl}methyl)-N-[2-fluoro-4-(trifluoromethyl)phenyl]-4-methylpyridin-3-amine]: the IC50 in the data set with pMEK [1] and in the data set with pMEK [2] was under 10 nM in each case.

With `CNS(=O)(=O)Nc1nccc(Cc2c[n+]([O-])cc(Nc3ccc(Cl)cc3F)c2C)c1F` [Example 14, 3-[(4-chloro-2-fluorophenyl)amino]-5-({3-fluoro-2-[(methylsulfamoyl)amino]pyridin-4-yl}methyl)-4-methylpyridin-1-ium-1-olate], the IC50 in the data set with pMEK [1] and in the data set with pMEK [2] was under 10 nM throughout.

Take `CNS(=O)(=O)Nc1nccc(Oc2cncc(Nc3ccc(Cl)cc3F)c2C)c1F` [Example 15, N-(4-chloro-2-fluorophenyl)-5-({3-fluoro-2-[(methylsulfamoyl)amino]pyridin-4-yl}oxy)-4-methylpyridin-3-amine]: the IC50 in the data set on pMEK [1] was under 10 nM; in the data set with pMEK [2], under 10 nM; in the data set with HCT116 cells it was 10 to 100 nM; in the data set on IPC298 cells, under 10 nM.

By viability is commonly meant the share of living cells, or the viability signal relative to a control. With `CNS(=O)(=O)Nc1nccc(C(C)c2cncc(Nc3ccc(Cl)cc3F)c2C)c1F` (centres unmarked) [Example 16], the IC50 is 10 to 100 nM in the data set on pMEK [1], 10 to 100 nM in the data set with pMEK [2], over 1000 nM in the data set on HCT116 cells and 100 to 500 nM with IPC298 cells. The viability at 1000 µM with HCT116 cells (setting [3]) worked out at 36.5%.

`Cc1c(Cc2ccnc(S(C)(=O)=O)c2F)cncc1Nc1ccc(F)cc1F` [Example 17, N-(2,4-difluorophenyl)-5-[(3-fluoro-2-methanesulfonylpyridin-4-yl)methyl]-4-methylpyridin-3-amine]: the IC50 in the data set on pMEK [1] is 500 to 1000 nM; in the data set on pMEK [2] it was over 1000 nM; with HCT116 cells it was over 1000 nM; in the data set on IPC298 cells it was over 1000 nM. The “CTG % cell viability 1000 uM HCT116.20” value in the data set on HCT116 cells (HCT116 cells, 72 hours, 1000 uM, percent cells remaining after treatment) is 83.74%. In addition, the viability at 1000 µM in the data set on HCT116 cells (setting [3]) was 68.2%. Besides, in the data set with IPC298 cells (IPC298 cells, 72 hours, 100 uM, percent cells remaining after treatment), the “CTG % cell viability 100 uM IPC298.2” value is 72.73; % and 98.52%.

With `CNS(=O)(=O)Nc1nccc(Cc2cncc(Nc3ccc(Cl)cc3F)c2)c1F` [Example 18, 4-[[5-(4-chloro-2-fluoro-anilino)-3-pyridyl]methyl]-3-fluoro-N-(methylsulfamoyl)pyridin-2-amine], the IC50 with pMEK [1] was under 10 nM; with pMEK [2], under 10 nM; in the data set on HCT116 cells, 100 to 500 nM; in the data set with IPC298 cells, 10 to 100 nM.

For `Cc1c(Cc2ccc(S(C)(=O)=O)cc2F)cncc1Nc1ccc(Cl)cc1F` [Example 20, N-(4-chloro-2-fluoro-phenyl)-5-[(2-fluoro-4-methylsulfonyl-phenyl)methyl]-4-methyl-pyridin-3-amine], the IC50 in the data set with pMEK [1] and in the data set on pMEK [2] was over 1000 nM in each case.

For `CNS(=O)(=O)Nc1nccc(Cc2cncc(Nc3ccc(Cl)cc3F)n2)c1F` [Example 21, N-(4-chloro-2-fluoro-phenyl)-6-[[3-fluoro-2-(methylsulfamoylamino)-4-pyridyl]methyl]pyrazin-2-amine], the IC50 in the data set on pMEK [1] was 10 to 100 nM; in the data set on pMEK [2] it was 10 to 100 nM; with HCT116 cells, over 1000 nM; with IPC298 cells, 500 to 1000 nM.

Turning to `Cc1c(Cc2ccnc([S+](C)[O-])c2F)cncc1Nc1ccc(Br)cc1F` (centres unmarked) [Example 22], the IC50 in the data set on pMEK [1] was under 10 nM; in the data set with pMEK [2] it was under 10 nM; with HCT116 cells it was 100 to 500 nM; with IPC298 cells, 10 to 100 nM.

On to `CNS(=O)(=O)Nc1nccc(Cc2cncc(Nc3ccc(OC)cc3F)c2C)c1F` [Example 23, 5-({3-fluoro-2-[(methylsulfamoyl)amino]pyridin-4-yl}methyl)-N-(2-fluoro-4-methoxyphenyl)-4-methylpyridin-3-amine], for which the IC50 in the data set on pMEK [1] was under 10 nM; with pMEK [2], under 10 nM; with HCT116 cells, 10 to 100 nM.

With `CNS(=O)(=O)Nc1ccc(Cc2cncc(Nc3ccc(Cl)cc3F)c2C)cc1OC` [Example 25, N-(4-chloro-2-fluoro-phenyl)-5-[[3-methoxy-4-(methylsulfamoylamino)phenyl]methyl]-4-methyl-pyridin-3-amine], the IC50 in the data set with pMEK [1] and in the data set on pMEK [2] was over 1000 nM each time.

For the compound `CNS(=O)(=O)Nc1nccc(Cc2cncc(Oc3ncc(Cl)cc3F)c2C)c1F` [Example 29, {[4-({5-[(5-chloro-3-fluoropyridin-2-yl)oxy]-4-methylpyridin-3-yl}methyl)-3-fluoropyridin-2-yl]sulfamoyl}(methyl)amine], the half-maximal inhibitory concentration (IC50) with pMEK [1] and in the data set with pMEK [2] was 10 to 100 nM throughout.

For the compound `C=CCOc1cncc(Cc2ccnc(NS(=O)(=O)NC)c2F)c1C` [Example 30, 4-[(5-allyloxy-4-methyl-3-pyridyl)methyl]-3-fluoro-N-(methylsulfamoyl)pyridin-2-amine], the IC50 with pMEK [1] and in the data set with pMEK [2] was 10 to 100 nM throughout.

In the case of `CNS(=O)(=O)Nc1nccc(Cc2cncc(-c3ncccc3F)c2C)c1F` [Example 31, 3-fluoro-4-[[5-(3-fluoro-2-pyridyl)-4-methyl-3-pyridyl]methyl]-N-(methylsulfamoyl)pyridin-2-amine], the IC50 with pMEK [1] and in the data set with pMEK [2] was over 1000 nM in each case.

As to `CNS(=O)(=O)Nc1nccc(Cc2cncc(-c3ncc(Cl)cc3F)c2C)c1F` [Example 32, 4-[[5-(5-chloro-3-fluoro-2-pyridyl)-4-methyl-3-pyridyl]methyl]-3-fluoro-N-(methylsulfamoyl)pyridin-2-amine], the IC50 in the data set on pMEK [1] and in the data set on pMEK [2] was over 1000 nM each time.

For the compound `CNS(=O)(=O)Nc1nccc(Cc2cncc(OCc3ncccc3F)c2C)c1F` [Example 34, {[3-fluoro-4-({5-[(3-fluoropyridin-2-yl)methoxy]-4-methylpyridin-3-yl}methyl)pyridin-2-yl]sulfamoyl}(methyl)amine], the IC50 in the data set on pMEK [1] was 500 to 1000 nM; with pMEK [2], over 1000 nM.

In the case of `CNS(=O)(=O)Nc1nccc(Cc2cncc(N(C)c3ccc(Cl)cc3F)c2C)c1F` [Example 36, N-(4-chloro-2-fluorophenyl)-5-({3-fluoro-2-[(methylsulfamoyl)amino]pyridin-4-yl}methyl)-N,4-dimethylpyridin-3-amine], the concentration for half-maximal inhibition (IC50) in the data set with pMEK [1] and in the data set with pMEK [2] was under 10 nM each time.

As for `CNS(=O)(=O)Nc1nccc(Cc2cncc(Oc3ccc(C4CC4)cc3F)c2C)c1F` [Example 99, 4-[[5-(4-cyclopropyl-2-fluoro-phenoxy)-4-methyl-3-pyridyl]methyl]-3-fluoro-N-(methylsulfamoyl)pyridin-2-amine], the IC50 in the data set on HCT116 cells and with IPC298 cells was under 10 nM each time.

With `CNS(=O)(=O)Nc1nccc(Oc2cncc(Oc3ccc(Br)cc3F)c2C)c1F` [Example 100, 4-[[5-(4-bromo-2-fluoro-phenoxy)-4-methyl-3-pyridyl]oxy]-3-fluoro-N-(methylsulfamoyl)pyridin-2-amine], the IC50 is 10 to 100 nM with HCT116 cells and under 10 nM in the data set with IPC298 cells.

As to `[2H]C([2H])([2H])c1ccc(Oc2cncc(Cc3ccnc(NS(=O)(=O)NC)c3F)c2C)c(F)c1` [Example 101, 3-fluoro-4-[[5-[2-fluoro-4-(trideuteriomethyl)phenoxy]-4-methyl-3-pyridyl]methyl]-N-(methylsulfamoyl)pyridin-2-amine], the IC50 with HCT116 cells is 10 to 100 nM; in the data set with IPC298 cells it was under 10 nM.

Take `CNS(=O)(=O)Nc1nccc(Oc2cncc(Oc3ccc(C4CC4)cc3F)c2C)c1F` [Example 102, 4-[[5-(4-cyclopropyl-2-fluoro-phenoxy)-4-methyl-3-pyridyl]oxy]-3-fluoro-N-(methylsulfamoyl)pyridin-2-amine]: the IC50 in the data set with HCT116 cells was 10 to 100 nM; in the data set on IPC298 cells, under 10 nM.

Consider `CNS(=O)(=O)Nc1nccc(Cc2cncc(Oc3ccc(C)c(F)c3)c2C)c1F` [Example 103, 3-fluoro-4-[[5-(3-fluoro-4-methyl-phenoxy)-4-methyl-3-pyridyl]methyl]-N-(methylsulfamoyl)pyridin-2-amine], for which the IC50 was 100 to 500 nM in the data set with HCT116 cells and under 10 nM in the data set with IPC298 cells.

As for `[2H]C([2H])([2H])c1ccc(Nc2cncc(Cc3ccnc(NS(=O)(=O)NC)c3F)c2C)c(F)c1` [Example 104, 3-fluoro-4-[[5-[2-fluoro-4-(trideuteriomethyl)anilino]-4-methyl-3-pyridyl]methyl]-N-(methylsulfamoyl)pyridin-2-amine], the IC50 with HCT116 cells and in the data set with IPC298 cells was under 10 nM throughout.
